Measured values reported in patent US20240166652A1, “MODULATORS OF THE INTEGRATED STRESS PATHWAY” (Calico Life Sciences LLC, priority 2017, published 2024).
pEC50: −log10 of the molar value.

tested on: ATF4 luciferase reporter in HEK293T cells; test: ATF4-Luc assay (ATF4 luciferase reporter, tunicamycin-treated HEK293T cells); type: cell-based, human; conditions: Homo sapiens, HEK-293T; HEK293T cells carrying the ATF4 luciferase reporter, 1 μg/mL tunicamycin, 7 hours
Description: In order to test exemplary compounds of the invention in a cellular context, a stable VWMD cell line was first constructed. The ATF4 reporter was prepared by fusing the human full-length ATF4 5′-UTR (NCBI Accession No. BC022088.2) in front of the firefly luciferase (FLuc) coding sequence lacking the initiator methionine as described in Sidrauski et al (eLife 2013). The construct was used to produce recombinant retroviruses using standard methods and the resulting viral supernatant was used to transduce HEK293T cells, which were then subsequently selected with puromycin to generate a stable cell line.
HEK293T cells carrying the ATF4 luciferase reporter were plated on polylysine coated 384-well plates (Greiner Bio-one) at 30,000 cells per well. Cells were treated the next day with 1 μg/mL tunicamycin and 200 nM of a compound of Formula (I) for 7 hours. Luminescence was measured using One Glo (Promega) as specified by the manufacturer. Cells were maintained in DMEM with L-glutamine supplemented with 10% heat-inactivated FBS (Gibco) and Antibiotic-Antimycotic solution (Gibco).
Table 2 below summarizes the EC50 data obtained using the ATF4-Luc assay for exemplary compounds of the invention.

`O=C(COc1ccc(C(F)(F)F)cc1)NC12CCC(NC(=O)COc3ccc(Cl)c(F)c3)(CC1)[C@@H](O)C2` [Compound 468, 2-(4-chloro-3-fluorophenoxy)-N-[(2S)-2-hydroxy-4-{2-[4-(trifluoromethyl)phenoxy]acetamido}bicyclo[2.2.2]octan-1-yl]acetamide] and `O=C(COc1ccc(OC(F)(F)F)cc1)NC12CCC(NC(=O)COc3ccc(Cl)c(F)c3)(CC1)[C@@H](O)C2` [Compound 473, 2-(4-chloro-3-fluorophenoxy)-N-[(2S)-2-hydroxy-4-{2-[4-(trifluoromethoxy)phenoxy]acetamido}bicyclo[2.2.2]octan-1-yl]acetamide] cannot be ordered by pEC50: over 8.00 for the first, over 8.00 for the second.

`O=C(COc1ccc(OC(F)(F)F)c(F)c1)NC12CCC(NC(=O)COc3ccc(Cl)c(F)c3)(CC1)[C@@H](O)C2` [Compound 761, 2-(4-chloro-3-fluorophenoxy)-N-[(2S)-4-{2-[3-fluoro-4-(trifluoromethoxy)phenoxy]acetamido}-2-hydroxybicyclo[2.2.2]octan-1-yl]acetamide] and `O=C(COc1ccc(Cl)c(F)c1)NC12CCC(NC(=O)COc3ccc(F)c(OC(F)(F)F)c3)(CC1)[C@@H](O)C2` [Compound 772, 2-(4-chloro-3-fluorophenoxy)-N-[(3S)-4-{2-[4-fluoro-3-(trifluoromethoxy)phenoxy]acetamido}-3-hydroxybicyclo[2.2.2]octan-1-yl]acetamide] cannot be ordered by pEC50: over 8.00 for the first, over 8.00 for the second.

Compared with `O=C(COc1ccc(Cl)c(F)c1)NC12CC(NC(=O)COc3ccn4nccc4n3)(C1)C2` [Compound 182, 2-(4-chloro-3-fluorophenoxy)-N-(3-{2-[(pyrazolo[1,5-a]pyrimidin-5-yl)oxy]acetamido}bicyclo[1.1.1]pentan-1-yl)acetamide], `Cc1ccc(OCC(=O)NC23CC(NC(=O)COc4ccc(Cl)c(F)c4)(C2)C3)c(F)n1` [Compound 245, 2-(4-chloro-3-fluorophenoxy)-N-(3-{2-[(2-fluoro-6-methylpyridin-3-yl)oxy]acetamido}bicyclo[1.1.1]pentan-1-yl)acetamide] is higher in pEC50: under 5.70 for the first, 7.30 to 8.00 for the second. The second is the more potent here.

First: O=C(COc1ccc(Cl)c(F)c1)NC12CCC(NC(=O)COc3ncn(-c4ccc(Cl)cc4)n3)(CC1)[C@@H](O)C2 [Compound 516, 2-(4-chloro-3-fluorophenoxy)-N-[(3S)-4-(2-{[1-(4-chlorophenyl)-1H-1,2,4-triazol-3-yl]oxy}acetamido)-3-hydroxybicyclo[2.2.2]octan-1-yl]acetamide]
Second: O=C(CC(=O)c1ccc(Cl)cc1)NC12CCC(NC(=O)COc3ccc(Cl)c(F)c3)(CC1)[C@@H](O)C2 [Compound 807, N-{(3S)-4-[2-(4-chloro-3-fluorophenoxy)acetamido]-3-hydroxybicyclo[2.2.2]octan-1-yl}-3-(4-chlorophenyl)-3-oxopropanamide]
The pEC50 of the first is lower: under 5.70 for the first, 7.30 to 8.00 for the second.

`N[C@H](CC(=O)NC12CC(NC(=O)COc3ccc(Cl)c(F)c3)(C1)C2)Cc1ccccc1` [Compound 810, (3S)-3-amino-N-{3-[2-(4-chloro-3-fluorophenoxy)acetamido]bicyclo[1.1.1]pentan-1-yl}-4-phenylbutanamide] and `O=C(COc1ccc(Cl)c(F)c1)NC12CC(NC(=O)Cc3cccc(C(F)(F)F)c3)(C1)C2` [Compound 457, 2-(4-chloro-3-fluorophenoxy)-N-(3-{2-[3-(trifluoromethyl)phenyl]acetamido}bicyclo[1.1.1]pentan-1-yl)acetamide] cannot be ordered by pEC50: under 5.70 for the first, under 5.70 for the second.

`O=C(COc1ccc(F)c(F)c1)NC12CCC(NC(=O)COc3ccc(OC(F)F)c(F)c3)(CC1)[C@@H](O)C2` [Compound 803, 2-[4-(difluoromethoxy)-3-fluorophenoxy]-N-{(2S)-4-[2-(3,4-difluorophenoxy)acetamido]-2-hydroxybicyclo[2.2.2]octan-1-yl}acetamide] and `Cc1ccc(OCC(=O)NC23CCC(NC(=O)COc4ccc(F)c(F)c4)(CC2)[C@@H](O)C3)cc1` [Compound 788, 2-(3,4-difluorophenoxy)-N-{(2S)-2-hydroxy-4-[2-(4-methylphenoxy)acetamido]bicyclo[2.2.2]octan-1-yl}acetamide] cannot be ordered by pEC50: over 8.00 for the first, over 8.00 for the second.

Compared with `Cc1cc2nc(CNC34CCC(NC(=O)COc5ccc(C(F)(F)F)c(F)c5)(CC3)[C@@H](O)C4)[nH]c2cc1C` [Compound 673, N-[(2S)-4-{[(5,6-dimethyl-1H-benzimidazol-2-yl)methyl]amino}-2-hydroxybicyclo[2.2.2]octan-1-yl]-2-[3-fluoro-4-(trifluoromethyl)phenoxy]acetamide], `O=C(COc1cc(F)c2cn[nH]c2c1)NC12CCC(NC(=O)COc3ccc(Cl)c(F)c3)(CC1)[C@@H](O)C2` [Compound 727, 2-(4-chloro-3-fluorophenoxy)-N-[(2S)-4-{2-[(4-fluoro-1H-indazol-6-yl)oxy]acetamido}-2-hydroxybicyclo[2.2.2]octan-1-yl]acetamide] is higher in pEC50: 6.60 to 7.30 for the first, over 8.00 for the second.

`Cc1cccc(COCC(=O)NC23CC(NC(=O)COc4ccc(Cl)c(F)c4)(C2)C3)n1` [Compound 128, 2-(4-chloro-3-fluorophenoxy)-N-(3-{2-[(6-methylpyridin-2-yl)methoxy]acetamido}bicyclo[1.1.1]pentan-1-yl)acetamide] and `COc1ccc(COCC(=O)NC23CC(NC(=O)COc4ccc(Cl)c(F)c4)(C2)C3)cn1` [Compound 281, 2-(4-chloro-3-fluorophenoxy)-N-(3-{2-[(6-methoxypyridin-3-yl)methoxy]acetamido}bicyclo[1.1.1]pentan-1-yl)acetamide] fall in the same range of pEC50: 5.70 to 6.30 for the first, 5.70 to 6.30 for the second.

Compared with `O=C(COc1ccc(Cl)c(F)c1)NC12CCC(OCc3ccc(Cl)cc3)(CC1)CC2O` (centres unmarked) [Compound 565, 2-(4-chloro-3-fluorophenoxy)-N-{4-[(4-chlorophenyl)methoxy]-2-hydroxybicyclo[2.2.2]octan-1-yl}acetamide], `O=C(COc1nccs1)NC12CCC(NC(=O)COc3ccc(Cl)c(F)c3)(CC1)[C@@H](O)C2` [Compound 577, 2-(4-chloro-3-fluorophenoxy)-N-[(2S)-2-hydroxy-4-{2-[(1,3-thiazol-2-yl)oxy]acetamido}bicyclo[2.2.2]octan-1-yl]acetamide] is lower in pEC50: 5.70 to 6.30 for the first, under 5.70 for the second.

Compared with `N#Cc1ccc(OCC(=O)NC23CC(NC(=O)COc4ccc(Cl)c(F)c4)(C2)C3)cn1` [Compound 238, 2-(4-chloro-3-fluorophenoxy)-N-(3-{2-[(6-cyanopyridin-3-yl)oxy]acetamido}bicyclo[1.1.1]pentan-1-yl)acetamide], `COC(=O)c1ccc(OCC(=O)NC23CC(NC(=O)COc4ccc(Cl)c(F)c4)(C2)C3)cn1` [Compound 264, methyl 5-[2-({3-[2-(4-chloro-3-fluorophenoxy)acetamido]bicyclo-[1.1.1]pentan-1-yl}amino)-2-oxoethoxy]pyridine-2-carboxylate] is lower in pEC50: 7.30 to 8.00 for the first, 5.70 to 6.30 for the second.

Compared with `O=C(COCc1ccc(F)cc1)NC12CC(NC(=O)COc3ccc(Cl)c(F)c3)(C1)C2` [Compound 142, 2-(4-chloro-3-fluorophenoxy)-N-(3-{2-[(4-fluorophenyl)methoxy]acetamido}-bicyclo[1.1.1]pentan-1-yl)acetamide], `O=C(COCc1ccccc1)NC12CC(NC(=O)COc3ccc(Cl)cc3)(C1)C2` [Compound 208, 2-(benzyloxy)-N-{3-[2-(4-chlorophenoxy)acetamido]bicyclo[1.1.1]pentan-1-yl}acetamide] is lower in pEC50: 7.30 to 8.00 for the first, 6.60 to 7.30 for the second.

First: O=C(COc1ccc(Cl)c(F)c1)NC12CC(NS(=O)(=O)Cc3cccc(C(F)(F)F)c3)(C1)C2 [Compound 428, 2-(4-chloro-3-fluorophenoxy)-N-[3-({[3-(trifluoromethyl)phenyl]methanesulfonyl}amino)bicyclo[1.1.1]pentan-1-yl]acetamide]
Second: Cc1ccc(OC(=O)NC23CC(NC(=O)COc4ccc(Cl)c(F)c4)(C2)C3)cc1 [Compound 435, 4-methylphenyl {3-[2-(4-chloro-3-fluorophenoxy)acetamido]bicyclo[1.1.1]pentan-1-yl}carbamate]
The pEC50 of the first is lower: 5.70 to 6.30 for the first, 6.30 to 6.60 for the second.

First: O=C(COc1ccc(Cl)c(F)c1)NC12CC(NCC(O)c3ccc(Cl)cc3)(C1)C2 (centres unmarked) [Compound 290, 2-(4-chloro-3-fluorophenoxy)-N-(3-{[2-(4-chlorophenyl)-2-hydroxyethyl]amino}bicyclo[1.1.1]pentan-1-yl)acetamide]
Second: COCC(Oc1ccc(Cl)c(F)c1)C(=O)NC12CC(NC(=O)COc3ccc(Cl)c(F)c3)(C1)C2 (centres unmarked) [Compound 421, 2-(4-chloro-3-fluorophenoxy)-N-{3-[2-(4-chloro-3-fluorophenoxy)acetamido]bicyclo[1.1.1]pentan-1-yl}-3-methoxypropanamide]
The pEC50 of the first is lower: 5.70 to 6.30 for the first, 6.60 to 7.30 for the second. The second is the more potent here.

First: O=C(COc1cnc(OC2CCC2)nc1)NC12CCC(NC(=O)COc3ccc(Cl)c(F)c3)(CC1)[C@@H](O)C2 [Compound 636, 2-(4-chloro-3-fluorophenoxy)-N-[(2S)-4-(2-{[2-(cyclobutyloxy)pyrimidin-5-yl]oxy}acetamido)-2-hydroxybicyclo[2.2.2]octan-1-yl]acetamide]
Second: Cc1ncnc(C)c1OCC(=O)NC12CCC(NC(=O)COc3ccc(Cl)c(F)c3)(CC1)C[C@@H]2O [Compound 493, 2-(4-chloro-3-fluorophenoxy)-N-[(3S)-4-{2-[(4,6-dimethylpyrimidin-5-yl)oxy]acetamido}-3-hydroxybicyclo[2.2.2]octan-1-yl]acetamide]
The pEC50 of the first is higher: 6.30 to 6.60 for the first, under 5.70 for the second. The first is the more potent here.

With `Cc1ccc(OCC(=O)NC23CC(NC(=O)COc4ccc(Cl)cc4)(C2)C3)cc1` [Compound 115, 2-(4-chlorophenoxy)-N-{3-[2-(4-methylphenoxy)acetamido]bicyclo-[1.1.1]pentan-1-yl}acetamide] the pEC50 was 6.60 to 7.30.
